This passage reports Dmax and DC50 results from patent US20250206732A1, “COMPOUNDS AND METHODS FOR THE TARGETED DEGRADATION OF KRAS” (Arvinas Operations, Inc., priority 2022, published 2025).

The target of this experiment is T1, AsPC-1 HiBiT-KRASG12D (Homo sapiens, UniProt P01116, G12D).
T1 construct: insert the HiBiT tag onto the N-terminus of one or more of the endogenous KRAS alleles; endogenous in cells; host or cells: AsPC-1 (ATCC CRL-1682), CRISPR-Cas9 knock-in clone, one tagged allele
The experiment is described as follows: HiBiT degradation assay (G12D), AsPC-1 HiBiT-KRASG12D cells. Format: cell-based. The settings on record: 24 hours treatment; for Dmax: ASPC1, AsPC-1 HiBiT-KRASG12D cells, maximum degradation observed; for DC50: AsPC-1 HiBiT-KRASG12D cells, HiBiT luminescence. The method in brief:
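AsPC-1 cells carried a CRISPR knock-in of an N-terminal HiBiT tag on endogenous KRAS G12D. After 24 h compound treatment at 37 °C (triplicate), viability was read by alamar blue (4 h, fluorescence, normalized to DMSO). HiBiT-KRAS levels were then measured by Nano-Glo HiBiT lytic luminescence after 45 min at room temperature.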
Background: HiBiT is a short tag that completes a luciferase, so light tracks the accessible tagged protein.

T1 sequence (P01116 1-188 isoform P01116-2 G12D): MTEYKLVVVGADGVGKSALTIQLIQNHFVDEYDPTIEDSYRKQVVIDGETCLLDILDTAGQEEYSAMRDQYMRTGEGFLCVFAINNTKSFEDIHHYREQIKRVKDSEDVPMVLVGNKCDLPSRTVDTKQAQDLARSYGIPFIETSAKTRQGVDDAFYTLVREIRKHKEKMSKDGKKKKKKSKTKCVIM

The term Dmax denotes the greatest extent of degradation seen. The low end stands for a partial loss of target, the high end for a fuller loss of target. What is called DC50 is the concentration giving 50% degradation. With `CCc1cccc2cc(O)cc(-c3ncc4c(N5CC6CCC(C5)N6)nc(OCCN5CCC(F)(CN6CCN(c7cc([C@@H](C(=O)N8C[C@H](O)C[C@H]8C(=O)N[C@@H](C)c8ccc(-c9ccnn9C)cc8)C(C)C)on7)CC6)CC5)nc4c3F)c12` [Compound 197, (2S,4R)-1-[(2S)-2-(3-{4-[(1-{2-[(4-{3,8-diazabicyclo[3.2.1]octan-3-yl}-7-(8-ethyl-3-hydroxynaphthalen-1-yl)-8-fluoropyrido[4,3-d]pyrimidin-2-yl)oxy]ethyl}-4-fluoropiperidin-4-yl)methyl]piperazin-1-yl}-1,2-oxazol-5-yl)-3-methylbutanoyl]-4-hydroxy-N-[(1S)-1-[4-(1-methyl-1H-pyrazol-5-yl)phenyl]ethyl] pyrrolidine-2-carboxamide], the Dmax is under 20% and the DC50 fell in the range of 1 to 3 µM.

In turn, `C#Cc1c(F)ccc2cc(O)cc(-c3ncc4c(N5CC6CCC(C5)N6)nc(OCCN5CCC(F)(CN6CCN(c7cc([C@H](C(=O)N8C[C@H](O)C[C@H]8C(=O)N[C@@H](C)c8ccc(-c9ccnn9C)cc8)C(C)C)on7)CC6)CC5)nc4c3F)c12` [Compound 198, (2S,4R)-1-[(2R)-2-(3-{4-[(1-{2-[(4-{3,8-diazabicyclo[3.2.1]octan-3-yl}-7-(8-ethynyl-7-fluoro-3-hydroxynaphthalen-1-yl)-8-fluoropyrido[4,3-d]pyrimidin-2-yl)oxy]ethyl}-4-fluoropiperidin-4-yl)methyl]piperazin-1-yl}-1,2-oxazol-5-yl)-3-methylbutanoyl]-4-hydroxy-N-[(1S)-1-[4-(1-methyl-1H-pyrazol-5-yl)phenyl]ethyl]pyrrolidine-2-carboxamide] returned a Dmax of 80 to 100% and a DC50 of under 0.6 µM.

Molecule `CCc1cccc2cc(O)cc(-c3ncc4c(N5CC6CCC(C5)N6)nc(OCCN5CCC(F)(CN6CCN(c7cc([C@H](C(=O)N8C[C@H](O)C[C@H]8C(=O)N[C@@H](C)c8ccc(-c9ccnn9C)cc8)C(C)C)on7)CC6)CC5)nc4c3F)c12` [Compound 199, (2S,4R)-1-[(2R)-2-(3-{4-[(1-{2-[(4-{3,8-diazabicyclo[3.2.1]octan-3-yl}-7-(8-ethyl-3-hydroxynaphthalen-1-yl)-8-fluoropyrido[4,3-d]pyrimidin-2-yl)oxy]ethyl}-4-fluoropiperidin-4-yl)methyl]piperazin-1-yl}-1,2-oxazol-5-yl)-3-methylbutanoyl]-4-hydroxy-N-[(1S)-1-[4-(1-methyl-1H-pyrazol-5-yl)phenyl]ethyl] pyrrolidine-2-carboxamide] showed a Dmax of 80 to 100% and a DC50 of under 0.6 µM.

Take `CCc1cccc2cc(O)cc(-c3ncc4c(N5CC6CCC(C5)N6)nc(OCCN5CCC(F)(CN6CCN(c7cc([C@H](C(=O)N8C[C@H](O)C[C@H]8C(=O)N[C@@H](C)c8ccc(-c9scnc9C)cc8)C(C)C)on7)C[C@H]6C)CC5)nc4c3F)c12` [Compound 200, (2S,4R)-1-[(2R)-2-{3-[(3R)-4-[(1-{2-[(4-{3,8-diazabicyclo[3.2.1]octan-3-yl}-7-(8-ethyl-3-hydroxynaphthalen-1-yl)-8-fluoropyrido[4,3-d]pyrimidin-2-yl)oxy]ethyl}-4-fluoropiperidin-4-yl)methyl]-3-methylpiperazin-1-yl]-1,2-oxazol-5-yl}-3-methylbutanoyl]-4-hydroxy-N-[(1S)-1-[4-(4-methyl-1,3-thiazol-5-yl)phenyl]ethyl]pyrrolidine-2-carboxamide]: the Dmax lay within 60 to 80% and the DC50 is under 0.6 µM.

As to `CCc1cccc2cc(O)cc(-c3ncc4c(N5CC6CCC(C5)N6)nc(OCCN5CCC(CN6CCN(c7cc([C@@H](C(=O)N8C[C@H](O)C[C@H]8C(=O)N[C@@H](C)c8ccc(-c9ccnn9C)cc8)C(C)C)on7)CC6)CC5)nc4c3F)c12` [Compound 201, (2S,4R)-1-[(2S)-2-(3-{4-[(1-{2-[(4-{3,8-diazabicyclo[3.2.1]octan-3-yl}-7-(8-ethyl-3-hydroxynaphthalen-1-yl)-8-fluoropyrido[4,3-d]pyrimidin-2-yl)oxy]ethyl}piperidin-4-yl)methyl]piperazin-1-yl}-1,2-oxazol-5-yl)-3-methylbutanoyl]-4-hydroxy-N-[(1S)-1-[4-(1-methyl-1H-pyrazol-5-yl)phenyl]ethyl]pyrrolidine-2-carboxamide], the DC50 was over 3 µM.

Molecule `CCc1cccc2cc(O)cc(-c3ncc4c(N5CC6CCC(C5)N6)nc(OCCN5CCC(CC6CCN(c7cc([C@H](C(=O)N8C[C@H](O)C[C@H]8C(=O)N[C@@H](C)c8ccc(-c9ccnn9C)cc8)C(C)C)on7)CC6)CC5)nc4c3F)c12` [Compound 202, (2S,4R)-1-[(2R)-2-(3-{4-[(1-{2-[(4-{3,8-diazabicyclo[3.2.1]octan-3-yl}-7-(8-ethyl-3-hydroxynaphthalen-1-yl)-8-fluoropyrido[4,3-d]pyrimidin-2-yl)oxy]ethyl}piperidin-4-yl)methyl]piperidin-1-yl}-1,2-oxazol-5-yl)-3-methylbutanoyl]-4-hydroxy-N-[(1S)-1-[4-(1-methyl-1H-pyrazol-5-yl)phenyl]ethyl]pyrrolidine-2-carboxamide] showed a Dmax of 80 to 100% and a DC50 of under 0.6 µM.

As to `CCc1cccc2cc(O)cc(-c3ncc4c(N5CC6CCC(C5)N6)nc(OCCN5CCC(F)(CN6CCN(c7cc([C@@H](C(=O)N8C[C@H](O)C[C@H]8C(=O)N[C@@H](C)c8ccc(-c9scnc9C)cc8)C(C)C)on7)[C@@H](C)C6)CC5)nc4c3F)c12` [Compound 203, (2S,4R)-1-[(2S)-2-{3-[(2S)-4-[(1-{2-[(4-{3,8-diazabicyclo[3.2.1]octan-3-yl}-7-(8-ethyl-3-hydroxynaphthalen-1-yl)-8-fluoropyrido[4,3-d]pyrimidin-2-yl)oxy]ethyl}-4-fluoropiperidin-4-yl)methyl]-2-methylpiperazin-1-yl]-1,2-oxazol-5-yl}-3-methylbutanoyl]-4-hydroxy-N-[(1S)-1-[4-(4-methyl-1,3-thiazol-5-yl)phenyl]ethyl]pyrrolidine-2-carboxamide], the Dmax was in the range of 20 to 60% and the DC50 was 1 to 3 µM.

As for `CCc1cccc2cc(O)cc(-c3ncc4c(N5CC6CCC(C5)N6)nc(OCCN5CCC(O)(CC6CCN(c7cc([C@H](C(=O)N8C[C@H](O)C[C@H]8C(=O)N[C@@H](C)c8ccc(-c9scnc9C)cc8)C(C)C)on7)CC6)CC5)nc4c3F)c12` [Compound 204, (2S,4R)-1-[(2R)-2-(3-{4-[(1-{2-[(4-{3,8-diazabicyclo[3.2.1]octan-3-yl}-7-(8-ethyl-3-hydroxynaphthalen-1-yl)-8-fluoropyrido[4,3-d]pyrimidin-2-yl)oxy]ethyl}-4-hydroxypiperidin-4-yl)methyl]piperidin-1-yl}-1,2-oxazol-5-yl)-3-methylbutanoyl]-4-hydroxy-N-[(1S)-1-[4-(4-methyl-1,3-thiazol-5-yl)phenyl]ethyl]pyrrolidine-2-carboxamide], the Dmax was 80 to 100% and the 50% degradation concentration (DC50) was under 0.6 µM.

In the case of `CCc1cccc2cc(O)cc(-c3ncc4c(N5CC6CCC(C5)N6)nc(OCCN5CCC(O)(CC6CCN(c7cc([C@@H](C(=O)N8C[C@H](O)C[C@H]8C(=O)N[C@@H](C)c8ccc(-c9scnc9C)cc8)C(C)C)on7)CC6)CC5)nc4c3F)c12` [Compound 205, (2S,4R)-1-[(2S)-2-(3-{4-[(1-{2-[(4-{3,8-diazabicyclo[3.2.1]octan-3-yl}-7-(8-ethyl-3-hydroxynaphthalen-1-yl)-8-fluoropyrido[4,3-d]pyrimidin-2-yl)oxy]ethyl}-4-hydroxypiperidin-4-yl)methyl]piperidin-1-yl}-1,2-oxazol-5-yl)-3-methylbutanoyl]-4-hydroxy-N-[(1S)-1-[4-(4-methyl-1,3-thiazol-5-yl)phenyl]ethyl]pyrrolidine-2-carboxamide], the Dmax lay in the range of 20 to 60% and the DC50 is 1 to 3 µM.

In the case of `C#Cc1c(F)ccc2cc(O)cc(-c3ncc4c(N5CC6CCC(C5)N6)nc(OCCN5CCC(CN6CCN(c7cc([C@H](C(=O)N8C[C@H](O)C[C@H]8C(=O)N[C@@H](C)c8ccc(-c9scnc9C)cc8)C(C)C)on7)CC6)CC5)nc4c3F)c12` [Compound 206, (2S,4R)-1-[(2R)-2-(3-{4-[(1-{2-[(4-{3,8-diazabicyclo[3.2.1]octan-3-yl}-7-(8-ethynyl-7-fluoro-3-hydroxynaphthalen-1-yl)-8-fluoropyrido[4,3-d]pyrimidin-2-yl)oxy]ethyl}piperidin-4-yl)methyl]piperazin-1-yl}-1,2-oxazol-5-yl)-3-methylbutanoyl]-4-hydroxy-N-[(1S)-1-[4-(4-methyl-1,3-thiazol-5-yl)phenyl]ethyl]pyrrolidine-2-carboxamide], the Dmax was in the range of 80 to 100% and the half-maximal degradation concentration (DC50) was under 0.6 µM.

`CCc1cccc2cc(O)cc(-c3ncc4c(N5CCCCCC5)nc(OC[C@]56CCCN5[C@H](COc5cc([C@@H](C(=O)N7C[C@H](O)C[C@H]7C(=O)N[C@@H](C)c7ccc(-c8scnc8C)cc7)C(C)C)on5)CC6)nc4c3F)c12` [Compound 207, (2S,4R)-1-[(2S)-2-(3-{[(3S,7aR)-7a-({[4-(azepan-1-yl)-7-(8-ethyl-3-hydroxynaphthalen-1-yl)-8-fluoropyrido[4,3-d]pyrimidin-2-yl]oxy}methyl)-hexahydro-1H-pyrrolizin-3-yl]methoxy}-1,2-oxazol-5-yl)-3-methylbutanoyl]-4-hydroxy-N-[(1S)-1-[4-(4-methyl-1,3-thiazol-5-yl)phenyl]ethyl]pyrrolidine-2-carboxamide] had a DC50 of over 3 µM.
